{"source": "BindingDB's records for doi:10.7270/Q21R6P59", "about": "(German University In Cairo, 2011)"}
{"target": "cGMP-specific 3',5'-cyclic phosphodiesterase (Homo sapiens, UniProt O76074)", "assay": "Phosphodiesterase Inhibition Assay", "method": "PDE activity was measured using a modification of the IMAP fluorescence polarization phosphodiesterase assay from Molecular Devices. The assay was modified to use tetramethylrhodamine (TAMRA-) cGMP as substrate. PDE hydrolysis of the fluorescent labeled substrate allows it to bind the IMAP binding reagent, which results in increased FP.", "units": {"IC50": "nM"}}
{"smiles": "CCn1c(O)c2n(c1=O)[C@@H](c1ccc(OC)cc1OC)c1[nH]c3ccccc3c1C2", "note": "[PDE5 Inhibitor, 6]", "IC50": 720}
{"smiles": "CCn1c(O)c2n(c1=O)[C@H](c1ccc(OC)cc1OC)c1[nH]c3ccccc3c1C2", "note": "[PDE5 Inhibitor, 8]", "IC50": 360}
{"smiles": "COc1ccc([C@@H]2c3[nH]c4ccccc4c3Cc3c(O)n(C(C)(C)C)c(=O)n32)c(OC)c1", "note": "[PDE5 Inhibitor, 12]", "IC50": 550}
{"smiles": "C=CCn1c(O)c2n(c1=S)[C@H](c1ccc(OC)cc1OC)c1[nH]c3ccccc3c1C2", "note": "[PDE5 Inhibitor, 19]", "IC50": 560}
{"smiles": "COC(=O)[C@@H]1Cc2c([nH]c3ccccc23)[C@H](c2ccc(OC)cc2OC)N1", "note": "[PDE5 Inhibitor, 4]", "IC50": 6400}
{"smiles": "COc1ccc([C@H]2c3[nH]c4ccccc4c3Cc3c(O)n(C(C)(C)C)c(=O)n32)c(OC)c1", "note": "[PDE5 Inhibitor, 9]", "IC50": 2400}
